Here are results for 27 compounds from ChEMBL document CHEMBL1914458 (Eur J Med Chem, 2011).

As usually defined, the inhibition is the percentage by which the read-out fell short of the control. Broadly, the IC50 is the concentration needed to halve the response being measured. Lower therefore signals greater potency in that assay.

A short description of test [1]: Inhibition of self-mediated amyloid beta (1 to 42) aggregation at 20 uM after 48 hrs by thioflavin T fluorescence assay.
Test [2] can be described thus: Antioxidant activity assessed as trolox equivalent of AAPH-induced peroxyl radical scavenging activity at 0.5 to 10 uM after 10 mins by oxygen radical absorbance capacity-fluorescein assay. It is filed as functional.
Another test has as its target Cholinesterase (Equus caballus, UniProt P81908).
A further test addresses Acetylcholinesterase (Electrophorus electricus, UniProt O42275).
Test [3] is described as follows: Inhibition of self-mediated amyloid beta (1 to 42) aggregation at 10 uM after 48 hrs by thioflavin T fluorescence assay.

Acetylcholinesterase, sequence (O42275 whole entry): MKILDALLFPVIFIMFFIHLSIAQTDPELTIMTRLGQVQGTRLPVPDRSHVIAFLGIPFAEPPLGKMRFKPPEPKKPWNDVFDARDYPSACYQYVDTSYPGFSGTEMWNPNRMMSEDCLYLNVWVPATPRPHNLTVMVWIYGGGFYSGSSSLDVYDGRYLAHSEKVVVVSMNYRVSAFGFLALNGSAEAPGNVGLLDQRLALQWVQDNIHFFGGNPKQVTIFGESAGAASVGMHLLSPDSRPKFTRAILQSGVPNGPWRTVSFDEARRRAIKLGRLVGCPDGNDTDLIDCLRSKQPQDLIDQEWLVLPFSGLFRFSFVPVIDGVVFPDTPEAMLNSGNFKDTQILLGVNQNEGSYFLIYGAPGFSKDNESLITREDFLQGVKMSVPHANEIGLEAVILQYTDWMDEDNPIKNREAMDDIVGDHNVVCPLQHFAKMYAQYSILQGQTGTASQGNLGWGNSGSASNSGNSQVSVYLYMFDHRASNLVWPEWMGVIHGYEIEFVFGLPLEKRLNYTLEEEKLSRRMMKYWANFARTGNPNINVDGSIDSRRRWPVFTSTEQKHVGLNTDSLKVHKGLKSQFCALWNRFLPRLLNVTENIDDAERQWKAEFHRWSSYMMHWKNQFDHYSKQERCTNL
Cholinesterase, sequence (P81908 whole entry): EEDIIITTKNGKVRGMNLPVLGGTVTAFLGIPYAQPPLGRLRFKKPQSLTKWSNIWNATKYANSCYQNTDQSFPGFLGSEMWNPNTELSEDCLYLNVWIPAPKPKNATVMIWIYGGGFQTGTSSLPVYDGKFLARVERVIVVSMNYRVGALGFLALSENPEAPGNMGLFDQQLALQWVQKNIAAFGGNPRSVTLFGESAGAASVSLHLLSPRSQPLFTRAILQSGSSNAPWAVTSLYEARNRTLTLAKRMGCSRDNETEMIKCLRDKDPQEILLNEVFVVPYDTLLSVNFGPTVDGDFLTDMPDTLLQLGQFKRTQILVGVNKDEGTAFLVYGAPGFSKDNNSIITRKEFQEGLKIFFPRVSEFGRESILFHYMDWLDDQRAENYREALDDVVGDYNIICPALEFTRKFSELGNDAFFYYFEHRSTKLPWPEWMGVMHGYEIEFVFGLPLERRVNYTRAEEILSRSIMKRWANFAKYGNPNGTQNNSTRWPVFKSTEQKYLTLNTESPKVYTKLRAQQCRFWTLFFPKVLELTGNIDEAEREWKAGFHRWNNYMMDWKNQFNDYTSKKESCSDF
Description for Acetylcholinesterase: Inhibition of electric eel AChE using acetylthiocholine chloride substrate as substrate preincubated for 15 mins by Ellman's method

On to `COc1ccc(CCNc2c(OC)ccc3cc4[n+](cc23)CCc2cc3c(cc2-4)OCO3)cc1`, for which the inhibition is 91.1% in test [1] and 79% in test [3]. The Ratio in test [2] came to 4.68. Also, the IC50 at Cholinesterase was determined as 2880 nM; at Acetylcholinesterase, 990 nM.
Regarding `COc1ccc2cc3[n+](cc2c1NCCc1ccccc1C)CCc1cc2c(cc1-3)OCO2`, the inhibition in test [1] came out at 95%; in test [3], 80%. For the same compound, the Ratio in test [2] was found to be 4.05. The IC50 was 713 nM at Cholinesterase and 27 nM against Acetylcholinesterase.
Take `COc1ccc2cc3[n+](cc2c1NCCc1ccc(C)cc1)CCc1cc2c(cc1-3)OCO2`: the inhibition in test [1] was found to be 94%; in test [3], 80%. Also, in test [2], the Ratio was found to be 4.56. The IC50 at Cholinesterase came out at 821 nM; at Acetylcholinesterase, 449 nM.
As to `COc1ccc2cc3[n+](cc2c1NCCCN(C)C)CCc1cc2c(cc1-3)OCO2`, the Ratio in test [2] was 5.7. For the same compound, the IC50 against Cholinesterase was 6320 nM; against Acetylcholinesterase, 576 nM.
Take `COc1ccc2cc3[n+](cc2c1NCCc1cccc(C)c1)CCc1cc2c(cc1-3)OCO2`: the inhibition worked out at 93.6% in test [1] and 79% in test [3]. Besides, the Ratio in test [2] was 4.73. In addition, the IC50 against Cholinesterase worked out at 674 nM; against Acetylcholinesterase it was 91 nM.
With `COc1ccc2cc3[n+](cc2c1NCCCCCCOc1ccccc1)CCc1cc2c(cc1-3)OCO2`, the Ratio in test [2] was 2.8. Moreover, the IC50 amounted to 1300 nM against Cholinesterase and 1420 nM against Acetylcholinesterase.
Regarding `COc1ccc2cc3[n+](cc2c1NCCCCOc1cccnc1)CCc1cc2c(cc1-3)OCO2`, in test [2], the Ratio stood at 4.63. Besides, the IC50 came to 2940 nM against Cholinesterase and 1170 nM at Acetylcholinesterase.
Consider `COc1ccc2cc3[n+](cc2c1NCCc1ccc([N+](=O)[O-])cc1)CCc1cc2c(cc1-3)OCO2`, for which the inhibition in test [1] was found to be 82.6%; in test [3], 73.7%. The Ratio in test [2] was determined as 2.83. The IC50 at Cholinesterase was 841 nM; against Acetylcholinesterase, 693 nM.
`COc1ccc2cc3[n+](cc2c1NCCCCOc1cccc2ccccc12)CCc1cc2c(cc1-3)OCO2`: the Ratio in test [2] is 2.49. For the same compound, the IC50 came to 511 nM at Cholinesterase and 400 nM on Acetylcholinesterase.
Turning to `COc1ccc2cc3[n+](cc2c1OC)CCc1cc2c(cc1-3)OCO2`, the inhibition in test [1] was determined as 36.3%; in test [3] it was 8.9%.
Take `COc1ccc2cc3[n+](cc2c1NCCCc1ccccc1)CCc1cc2c(cc1-3)OCO2`: the Ratio in test [2] is 3.51. Besides, the IC50 on Cholinesterase turned out to be 785 nM; at Acetylcholinesterase, 680 nM.
Regarding `COc1ccc2cc3[n+](cc2c1NCCCOc1ccccc1)CCc1cc2c(cc1-3)OCO2`, the Ratio in test [2] turned out to be 5.4. Also, the IC50 on Cholinesterase came out at 216 nM; on Acetylcholinesterase it was 588 nM.
Take `COc1ccc2cc3[n+](cc2c1OCCCCOc1ccccc1)CCc1cc2c(cc1-3)OCO2`: in test [2], the Ratio came to 1.
In the case of `COc1ccc2[nH]cc(CCNc3c(OC)ccc4cc5[n+](cc34)CCc3cc4c(cc3-5)OCO4)c2c1`, the Ratio in test [2] is 6.06. For the same compound, the IC50 against Cholinesterase came to 1390 nM; on Acetylcholinesterase, 1260 nM.
For `COc1ccc2cc3[n+](cc2c1NCCOc1ccccc1)CCc1cc2c(cc1-3)OCO2`, in that order: 5.15, 727 nM and 688 nM.
For the compound `COc1ccc(CCNc2c(OC)ccc3cc4[n+](cc23)CCc2cc3c(cc2-4)OCO3)cc1OC`, the inhibition in test [1] stood at 70.1%; in test [3] it was 54.1%. Further, the Ratio in test [2] was found to be 5.3. Further, the IC50 at Cholinesterase was 5820 nM; against Acetylcholinesterase, 160 nM.
On to `COc1ccc2cc3[n+](cc2c1NCCc1cccs1)CCc1cc2c(cc1-3)OCO2`, for which the values for the inhibition in test [1] and in test [3] were 87.8% and 72.8%, respectively. Also, the Ratio in test [2] is 4.18. Besides, the IC50 stood at 555 nM at Cholinesterase and 608 nM on Acetylcholinesterase.
Turning to `COc1cc(/C=C/C(=O)CC(=O)/C=C/c2ccc(O)c(OC)c2)ccc1O`, the inhibition in test [3] amounted to 30.7%.
For `COc1ccc2cc3[n+](cc2c1NCCc1ccccc1)CCc1cc2c(cc1-3)OCO2`, the inhibition is 92.2% in test [1] and 79.2% in test [3]. Also, the Ratio in test [2] came to 4.8. For the same compound, the values for the IC50 against Cholinesterase and against Acetylcholinesterase were 406 nM and 209 nM, respectively.
Take `COc1ccc2cc3[n+](cc2c1NCCCCOc1ccccc1)CCc1cc2c(cc1-3)OCO2`: the Ratio in test [2] was 3.68. Further, the IC50 was found to be 1200 nM at Cholinesterase and 349 nM on Acetylcholinesterase.
As to `COc1ccc2cc3[n+](cc2c1NCCc1ccc(F)cc1)CCc1cc2c(cc1-3)OCO2`, the inhibition in test [1] turned out to be 90.4%; in test [3], 76.3%. The Ratio in test [2] was found to be 4.48. Moreover, the IC50 against Cholinesterase came out at 445 nM; on Acetylcholinesterase it was 238 nM.
`COc1ccc2cc3[n+](cc2c1NCCc1ccccn1)CCc1cc2c(cc1-3)OCO2`: the Ratio in test [2] is 6.4. Moreover, the values for the 50% inhibitory concentration (IC50) against Cholinesterase and at Acetylcholinesterase were 2500 nM and 1160 nM, respectively.
Turning to `COc1ccc2cc3[n+](cc2c1NCc1ccccc1)CCc1cc2c(cc1-3)OCO2`, the Ratio in test [2] turned out to be 4.32. For the same compound, the half-inhibitory concentration (IC50) at Cholinesterase amounted to 2280 nM; on Acetylcholinesterase it was 936 nM.
For `COc1ccc2cc3[n+](cc2c1NCCc1ccc(Cl)cc1Cl)CCc1cc2c(cc1-3)OCO2`, the inhibition in test [1] was found to be 93.6%; in test [3], 81.3%. In addition, the Ratio in test [2] came to 3.36. Also, the IC50 on Cholinesterase is 424 nM; against Acetylcholinesterase it was 130 nM.
For `COc1ccc2cc3[n+](cc2c1NCC(C)C)CCc1cc2c(cc1-3)OCO2`, the Ratio in test [2] was 5.12. Moreover, the IC50 at Cholinesterase is 2020 nM; on Acetylcholinesterase, 1140 nM.
On to `COc1ccc2cc3[n+](cc2c1NC(C)c1ccccc1)CCc1cc2c(cc1-3)OCO2` (stereo unspecified), for which, in test [2], the Ratio is 2.17. For the same compound, the IC50 stood at 3280 nM against Cholinesterase and 1910 nM against Acetylcholinesterase.
For `COc1ccc2cc3[n+](cc2c1NCCCCCOc1ccccc1)CCc1cc2c(cc1-3)OCO2`, in that order: 3.64, 1560 nM and 1090 nM.
